According to patent US5147868A, “Thienamycin renal peptidase inhibitors” (Merck & Co., Inc., priority 1992, dated 1992):

How the values were obtained:
renal dipeptidase = biological target: T1, renal dipeptidase (Sus scrofa, UniProt P22412); assay: affinity and hydrolysis of substrates by renal dipeptidase; assay type: biochemical, pig (hog kidneys); conditions: compared with thienamycin
T1 construct: disulfide-linked homodimer
T1 sequence (P22412 17-384): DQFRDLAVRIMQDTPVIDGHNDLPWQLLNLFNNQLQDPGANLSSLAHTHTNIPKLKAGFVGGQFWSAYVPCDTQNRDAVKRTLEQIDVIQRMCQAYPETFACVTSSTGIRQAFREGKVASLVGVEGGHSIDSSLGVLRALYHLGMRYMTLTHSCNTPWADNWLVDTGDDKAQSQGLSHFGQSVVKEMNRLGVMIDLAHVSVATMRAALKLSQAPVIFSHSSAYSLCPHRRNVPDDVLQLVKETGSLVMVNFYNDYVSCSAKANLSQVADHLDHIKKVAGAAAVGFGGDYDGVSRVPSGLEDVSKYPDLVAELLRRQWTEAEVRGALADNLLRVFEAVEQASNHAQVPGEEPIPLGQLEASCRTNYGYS

[1] = biological target: T2, dipeptidase (E.C.3.4.13.11), pig renal enzyme (Sus scrofa, UniProt P22412); assay: in vitro inhibition of hydrolysis of glycyldehydrophenylalanine (GDP) by solubilized renal dipeptidase; assay type: biochemical, pig (hog kidneys)
T2 construct: solubilized preparation of dipeptidase isolated from hog kidneys; from tissue; host or cells: hog kidney
T2 sequence (P22412 17-409): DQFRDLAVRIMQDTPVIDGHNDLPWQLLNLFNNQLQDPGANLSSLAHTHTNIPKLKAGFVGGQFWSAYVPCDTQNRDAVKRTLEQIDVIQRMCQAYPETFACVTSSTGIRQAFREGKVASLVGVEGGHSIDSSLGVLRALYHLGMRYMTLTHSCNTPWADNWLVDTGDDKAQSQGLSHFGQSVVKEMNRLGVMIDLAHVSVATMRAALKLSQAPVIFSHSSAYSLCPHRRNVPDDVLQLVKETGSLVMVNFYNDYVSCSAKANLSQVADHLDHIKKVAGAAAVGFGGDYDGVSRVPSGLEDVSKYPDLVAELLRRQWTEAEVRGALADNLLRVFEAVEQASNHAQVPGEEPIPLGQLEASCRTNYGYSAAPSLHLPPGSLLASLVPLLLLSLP
Procedure: This measured the ability of compounds to inhibit hydrolysis of glycyldehydrophenylalanine (GDP) by a solubilized preparation of dipeptidase isolated from hog kidneys. The procedure is as follows: to a 1 ml. system containing 50 mM "MOPS" (3-(N-morpholino)propanesulfonic acid) buffer, pH 7.1, is added 5 μg of lyophilized enzyme, and the test compound at a final concentration of 0.1 mM. After a five minute incubation at 37° C., GDP is added to a final concentration of 0.05 mM. Incubation is continued for 10 minutes, at 37° C. and hydrolysis of GDP is measured by the change in optical density with time at 275 nm. Inhibition of the enzyme is gauged by comparison to a standard run containing no inhibitor and is expressed as the inhibitor binding constant, Ki.
A 1 ml. system of 50 mM "MOPS" buffer, pH 7.1, is used. To this is added 5 μg of the pig renal enzyme and an amount of the test compound to bring its final concentration to 0.1 mM. After a five minute incubation at 37° C., an amount of GDP is added to bring its final concentration to 0.05 mM. The system is again incubated for 10 minutes, at 37° C. Hydrolysis of GDP is measured by its change in optical density with time at 275 nm. Inhibition of the enzyme is gauged by comparison to a standard run containing no inhibitor and is presented as percent inhibition.

## NCC(=O)NC(=Cc1ccccc1)C(=O)O [GDP, glycyldehydrophenylalanine]
Renal dipeptidase
  maximal velocity of hydrolysis by renal dipeptidase: much higher maximal velocity of hydrolysis

## CC1(C)CC1C(=O)N/C(=C\CCCC(=O)O)C(=O)O (racemic) [Compound 64]
[1]; pH 7.1, 37° C., concentration giving 50% inhibition, calculated from multiple assays, GDP substrate
  Ki: 48 nM

## CCCCC/C=C(\NC(=O)[C@H]1CC1(C)C)C(=O)O [dextrorotatory isomer, (+) Z-2-(2,2-dimethylcyclopropanecarboxamido)-2-octenoic acid]
[1]; resolved racemic octenoic acid, test not specified
  activity of resolved isomers: The activity resides in the dextrorotatory isomer
